Values belong to the molecule of their own block, whether it stands above or below them.
Columns and labels:
[1] = target: T1, Cyclin E/CDK2 (Homo sapiens, UniProt P24941); assay: CDK2 Flash Plate Assay (Rb phosphorylation, 33P-ATP); assay type: biochemical
T1 construct: made in house; host or cells: insect cells
Protocol: To determine inhibition of CDK2 activity, purified recombinant retinoblastoma (Rb) protein was coated on 96 well FlashPlates (New England Nuclear, Boston, Mass.). […] Recombinant active human Cyclin E/CDK2 complexes were partially purified from extracts of insect cells. […] Plates were incubated for 25 minutes at room temperature with shaking, then washed and counted in the Topcount scintillation counter (Packard Instrument Co., Downers Grove, Ill.). Dilutions of test compounds were tested in duplicate in each assay. The percent inhibition of Rb phosphorylation, which is a measure of the inhibition of CDK2 activity, was determined according to the following formula:
[formula] where “test compound” refers to the average counts per minute of the test duplicates, “nonspecific” refers to the average counts per minute when no Cyclin E/CDK2 was added, and “total” refers to the average counts per minute when no compound was added.

[2] = tested on: VEGF-stimulated HUVEC; assay: VEGF-stimulated HUVEC proliferation assay (BrdU); assay type: cell-based; details: Homo sapiens, BrdU labeling, VEGF 20 ng per mL, 24 hour exposure, read-out: Antiproliferative Activity VEGF-stimulated HUVEC Assay IC50
Protocol: (§1) The antiproliferative activity of test compounds of this invention in cell-based assays was evaluated by BrdU assay using the BrdU kit (Roche Biochemicals 1-647-229). Human umbilical vein endothelial cells (HUVEC, Clonetics CC-2519) were cultured in EGM-2 (Clonetics CC-3162) medium and seeded at 10000 cells per well in a volume of 200 μL of EGM-2 (Clonetics CC-3162) media in a 96-well flat bottom plates (Costar 3595) overnight. After 24 hours of growth at 37° C. with 5% CO2, the incubation media was removed slowly by aspiration, and the content of each well was washed with 300 μL pre-warmed EBM-2 (Clonetics CC-3156) containing 50 μg per mL of gentamycin and 50 ng per mL of amphotercin-B (Clonetics CC-4083). Subsequently, the remaining media was again aspirated and replaced with 160 μL per well of serum starvation media (EBM-2 supplemented with 1% heat inactivated FBS (Clonetics CC-4102), 50 μg per mL gentamycin and 50 ng per mL of amphotercin-B (Clonetics CC-4083), 10 units per mL of Wyeth-Ayerst heparin (NDC0641-0391-25), and 2 mM L-glutamine (GIBCO 25030-081). After serum starving the cells for 24 hours, 20 μL of test compound at 10× test concentration in serum starvation medium with 2.5% DMSO was added to the appropriate wells. The control wells contained 20 μL of serum starvation medium with 2.5% DMSO. Plates were returned to the incubator for 2 hours. After pre-incubating the cells with the test compounds for 2 hours, 20 μL of growth factors at 10X assay concentration diluted in serum starvation media, FGF at 50 ng per mL, or VEGF (R&D systems 293-VE) at 200 ng per mL were added. The final concentration of FGF in the assay was 5 ng per mL and the final concentration of VEGF in the assays was 20 ng per mL. The growth factor free control wells had 20 μL per well of serum starvation media with the same amount of BSA as the wells with growth factors. The plates were returned to the incubator for an additional 22 hours.
(§2) After 24 hour exposure to the test compounds, the cells were labeled with BrdU (Roche Biochemicals 1-647-229), by adding 20 μL per well of BrdU labeling reagent that has been diluted (1:100) in serum starvation medium. The plates were then returned to the incubator for 4 hours. The labeling medium was removed by draining the medium onto paper towels. […] The plates were read at 450 nm with reference wavelength of 650 nm. The percent inhibition for each test compound was calculated by subtracting the absorbency of the blank (no cells) wells from all wells, then subtracting the division of the average absorbency of each test duplicate by the average of the controls from 1. […] The IC50 is determined from the linear regression of a plot of the logarithm of the concentration versus percent inhibition.

[3] = tested on: HCT-116; assay: HCT-116 (colon) cell-based MTT proliferation assay; details: Homo sapiens, HCT-116, 96 h, 4 days post addition of test compound, read-out: Antiproliferative Activity HCT 116 (colon) Assay IC50
Protocol: The estrogen receptor negative epithelial breast carcinoma line (MDA-MB-435) was purchased from American Type Cell Culture Collection (ATCC; Rockville, Md.) and was grown in the medium recommended by ATCC. For analysis of the effect of the test compounds on growth of these cells, the cells were plated at 2000 cells per well in a 96-well tissue culture plate, and were incubated overnight at 37° C. with 5% CO2. The next day, the test compounds were dissolved in 100% dimethyl sulfoxide (DMSO) to yield a 10 mM stock solution. Each compound was diluted with sterile medium to 1 mM in a sufficient quantity to yield a final concentration of 120 μM. The compounds were then serially diluted in medium with 1.2% DMSO. One-fourth final volume of the diluted compounds was transferred to 96 well plates. Test compounds were assayed in duplicate. DMSO was added to a row of “control cells” such that the final concentration of DMSO in each well was 0.3%. Wells to which no cells were added served as the “blank.” Wells to which no inhibitor was added served as “no inhibitor control”. The plates were returned to the incubator, and 5 days post addition of test compound, were analyzed as described below.
3-(4,5-Dimethylthiazole-2-yl)-2,5-diphenyl-2H-tetrazolium bromide (thiazolyl blue; MTT) was added to each well to yield a final concentration of 1 mg/mL. The plates were then incubated at 37° C. for 3 hours. The plates were centrifuged at 1000 rpm for 5 minutes prior to aspiration of the MTT-containing medium. The MTT-containing medium was then removed and 100 μL 100% ethanol was added to each well to dissolve the resulting formazan metabolite. To ensure complete dissolution, plates were shaken for 15 minutes at room temperature. Absorbencies were read in a microtiter plate reader (Molecular Dynamics) at a wavelength of 570 nm with a 650 nm reference. Percent inhibition was calculated by subtracting the absorbance of the blank (no cell) wells from all wells, then subtracting the division of the average absorbance of each test duplicate by the average of the controls from 1.00. Inhibitory concentrations (IC50) were determined from the linear regression of a plot of the logarithm of the concentration versus the percent inhibition.
The colon adenocarcinoma line SW480 and the colon carcinoma line HCT-116 also were obtained from the ATCC and were tested according to the same protocol provided above for MDA-MB-435 cell based assay with the following modifications. Cell line SW480 was plated at 1000 cells per well and analyzed at 6 days post addition of the test compound. Cell line HCT-116 was plated at 1000 cells per well and analyzed at 4 days post addition of test compound.

[4] = target: T2, KDR (Homo sapiens, UniProt P35968); assay: KDR kinase HTRF assay; assay type: biochemical; details: 1 nM activated KDR, 0.3 mM ATP, 37° C. for 30 minutes; read-out: Inhibition of KDR IC50
T2 construct: EEE tag
T2 sequence (P35968 20-1356, species assumed): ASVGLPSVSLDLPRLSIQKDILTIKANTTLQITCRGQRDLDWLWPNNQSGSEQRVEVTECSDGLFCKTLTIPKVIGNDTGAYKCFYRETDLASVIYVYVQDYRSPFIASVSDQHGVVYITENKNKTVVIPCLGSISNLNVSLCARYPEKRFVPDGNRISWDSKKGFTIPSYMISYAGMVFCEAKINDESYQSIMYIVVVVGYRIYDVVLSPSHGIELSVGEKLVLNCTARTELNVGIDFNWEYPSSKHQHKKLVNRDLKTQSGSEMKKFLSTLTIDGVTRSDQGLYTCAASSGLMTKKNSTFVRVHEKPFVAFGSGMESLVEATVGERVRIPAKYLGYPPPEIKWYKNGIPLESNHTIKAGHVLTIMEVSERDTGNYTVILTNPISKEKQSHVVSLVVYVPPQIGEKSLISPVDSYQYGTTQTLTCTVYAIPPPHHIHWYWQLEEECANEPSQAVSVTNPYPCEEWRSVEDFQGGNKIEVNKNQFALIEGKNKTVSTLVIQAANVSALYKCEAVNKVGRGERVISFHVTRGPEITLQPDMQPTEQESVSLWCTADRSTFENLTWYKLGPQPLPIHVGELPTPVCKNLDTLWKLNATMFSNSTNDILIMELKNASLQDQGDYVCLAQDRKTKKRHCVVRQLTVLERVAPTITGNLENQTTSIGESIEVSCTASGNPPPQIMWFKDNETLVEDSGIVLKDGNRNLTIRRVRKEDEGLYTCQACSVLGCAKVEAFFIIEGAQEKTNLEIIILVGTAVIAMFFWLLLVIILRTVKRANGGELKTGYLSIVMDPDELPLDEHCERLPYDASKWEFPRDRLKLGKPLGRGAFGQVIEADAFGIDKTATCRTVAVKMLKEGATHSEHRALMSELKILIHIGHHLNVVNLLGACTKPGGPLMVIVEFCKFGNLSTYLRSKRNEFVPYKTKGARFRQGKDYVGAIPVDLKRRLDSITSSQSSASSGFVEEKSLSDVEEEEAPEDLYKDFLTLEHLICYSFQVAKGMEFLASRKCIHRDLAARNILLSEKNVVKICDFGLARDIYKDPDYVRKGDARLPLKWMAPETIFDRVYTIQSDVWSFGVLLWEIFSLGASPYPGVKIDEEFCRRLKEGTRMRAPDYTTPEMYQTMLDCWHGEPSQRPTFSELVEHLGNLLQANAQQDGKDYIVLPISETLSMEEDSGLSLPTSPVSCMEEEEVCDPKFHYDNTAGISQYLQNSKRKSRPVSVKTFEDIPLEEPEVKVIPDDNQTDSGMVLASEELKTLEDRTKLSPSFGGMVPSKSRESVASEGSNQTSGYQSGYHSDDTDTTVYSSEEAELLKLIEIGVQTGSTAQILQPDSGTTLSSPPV
Protocol: (§3) To determine inhibition of KDR and FGFR, kinase assays were conducted using an HTRF (Homogeneous Time Resolved Fluorescence) assay. This assay is described in A. J. Kolb et. al., Drug Discovery Today, 1998, 3(7), p 333.
Prior to kinase reaction, recombinant EEE-tagged KDR was activated in the presence of activation buffer (50 mM HEPES, pH 7.4, 1 mM DTT, 10% glycerol, 150 mM NaCl, 0.1 mM EDTA, 26 mM MgCl2, and 4 mM ATP). The enzyme was incubated at 4° C. for 1 hour.
Kinase activity assays were performed in 96-well polypropylene plates (Falcon) with a total volume of 90 μL in each well. Each well contained 1 μM KDR substrate (Biotin-[…]), 1 nM activated KDR, and a test compound with one of 8 assay concentrations ranging from […] to […] (1:5 serial dilution). […] The reaction was incubated at 37° C. for 30 minutes. To stop the KDR reaction, 72 μL of reaction mixture was transferred into a STOP plate containing 18 μL of revelation buffer (20 mM EDTA, 50 mM HEPES, pH 7.4, 0.02% BSA, 10 nM Eu-labelled anti-pY antibody (final conc. 2 nM), and 100 nM streptavidin (final conc. 20 nM)). After mixing, 35 μL of solution was transferred into duplicate wells of a 384-well black plate (Costar), and read at 615/665 nm on a Wallac Victor 5 reader.
(§4) Compound IC50 values were determined from duplicate sets of data, and calculated by using Excel and fitting data to equation Y=[(a−b)/{1+(X/c)^d]+b, where a and b are enzyme activity in the presence of no test inhibitor compound and an infinite amount of inhibitor test compound, respectively, c is the IC50 and d is the hill constant of the compound response. The IC50 value is the concentration of test compound that reduces by 50% the enzyme activity under the test conditions described.

[5] = target: T3, FGFR; assay: FGFR kinase HTRF assay; assay type: biochemical; details: 1.5 nM activated FGFR, 10 μM ATP; read-out: Inhibition of FGFR IC50
T3 construct: fused on or other part: GST tag
Protocol: as §3
FGFR activity assays were carried out as described above for the KDR activity assay with the following differences. GST-tagged FGFR enzyme was activated at room temperature for 1 hour in the following activation buffer: 100 mM HEPES, pH 7.4, 50 mM NaCl, 20 mM MgCl2, and 4 mM ATP. […] The rest of the assay was performed in the same manner as KDR assay.
as §4

[6] = tested on: FGF-stimulated HUVEC; assay: FGF-stimulated HUVEC proliferation assay (BrdU); assay type: cell-based; details: Homo sapiens, BrdU labeling, FGF 5 ng per mL, 24 hour exposure, read-out: Antiproliferative Activity FGF-stimulated HUVEC Assay IC50
Protocol: as §1, §2

SMILES: Cc1[nH]nc2c1N=C(c1ccccc1Cl)c1cc(F)c(OC(C)C)cc1N2 [IVh, 5-(2-chlorophenyl)-1,2-dihydro-7-fluoro-8-(1-methylethoxy)-3-methyl-pyrazolo[3,4-b][1,4]benzodiazepine]
IC50 [1]: 247 nM

SMILES: COc1cc2c(cc1Cl)Nc1n[nH]c(C)c1N=C2c1ccccc1Cl [IVy, 8-chloro-5-(2-chlorophenyl)-1,2-dihydro-7-methoxy-3-methyl-pyrazolo[3,4-b][1,4]benzodiazepine]
IC50 [2]: 174 nM

SMILES: COc1cc2c(cc1C#N)C(c1ccccc1Cl)=Nc1c[nH]nc1N2
melting point: 288 to 290 °C

SMILES: COCCOc1cc2c(cc1F)C(c1ccccc1Cl)=Nc1c(n[nH]c1C)N2 [IVf, 5-(2-chlorophenyl)-1,2-dihydro-7-fluoro-8-methoxyethoxy-3-methyl-pyrazolo[3,4-b][1,4]benzodiazepine]
IC50 [1]: 395 nM
IC50 [3]: 498 nM

SMILES: COc1cc2c(cc1C)C(c1ccccc1Cl)=Nc1c(n[nH]c1C)N2 [IVz, 5-(2-chlorophenyl)-1,2-dihydro-3,7-dimethyl-8-methoxy-pyrazolo[3,4-b][1,4]benzodiazepine]
IC50 [2]: 12 nM

SMILES: Cc1cc2c(cc1C)C(c1ccccc1Cl)=Nc1c(n[nH]c1C)N2 [IVw, 5-(2-chlorophenyl)-1,2-dihydro-3,7,8-trimethyl-pyrazolo[3,4-b][1,4]benzodiazepine]
IC50 [5]: 38 nM
IC50 [2]: 22 nM
IC50 [6]: 36 nM

Continued, in another order:

melting point: 242 to 243 °C
SMILES: COc1cc2c(cc1F)C(c1ccccc1Cl)=Nc1c[nH]nc1N2

IC50 [4]: 24 nM
IC50 [3]: 509 nM
SMILES: COCCOc1cc2c(cc1OC)Nc1n[nH]c(C)c1N=C2c1ccccc1Cl [IVkk, 5-(2-chlorophenyl)-1,2-dihydro-8-methoxy-7-methoxyethoxy-3-methyl-pyrazolo[3,4-b][1,4]benzodiazepine]

IC50 [5]: 32 nM
IC50 [4]: 22 nM
SMILES: COc1cc2c(cc1C(N)=O)C(c1ccccc1Cl)=Nc1c(n[nH]c1C)N2 [IVc]
IC50 [6]: < 1 nM

melting point: 210 to 211 °C
SMILES: COc1cc2c(cc1Br)C(c1ccccc1Cl)=Nc1c(n[nH]c1C)N2

IC50 [3]: 197 nM
SMILES: COCCOc1cc2c(cc1OC)C(c1ccccc1Cl)=Nc1c(n[nH]c1C)N2 [IVgg, 5-(2-chlorophenyl)-1,2-dihydro-7-methoxy-8-methoxyethoxy-3-methyl-pyrazolo[3,4-b][1,4]benzodiazepine]

IC50 [5]: 33 nM
SMILES: Cc1[nH]nc2c1N=C(c1ccccc1Cl)c1cc(C#N)c(OCCCN3CCOCC3)cc1N2 [IVk, 5-(2-chlorophenyl)-7-cyano-1,2-dihydro-8-(3-(4-morpholinyl)propoxy)-3-methyl-pyrazolo[3,4-b][1,4]benzodiazepine]

IC50 [4]: 31 nM
SMILES: Cc1[nH]nc2c1N=C(c1ccccc1Cl)c1cc(F)c(OCCCN3CCOCC3)cc1N2 [IVi, 5-(2-chlorophenyl)-1,2-dihydro-7-fluoro-8-(3-(4-morpholinyl)propoxy)-3-methyl-pyrazolo[3,4-b][1,4]benzodiazepine]

melting point: 275 to 276 °C
SMILES: COc1cc2c(cc1C)C(c1ccccc1Cl)=Nc1c[nH]nc1N2

Reference: US7524840B2, “7,8-disubstituted pyrazolobenzodiazepines” (Hoffmann-La Roche Inc., priority 2004, dated 2009)
